Experimental findings from patent US20080312271A1, “AZABENZIMIDAZOLYL COMPOUNDS” (Pfizer Inc., priority 2006, published 2008) are described below.

The experiment concerns the target T1, mGluR2 receptor (metabotropic glutamate receptor 2) (Homo sapiens, UniProt Q14416).
T1 construct: expressed in transfected cells
The experiment in a line: mGluR2 Potentiator Screen, FLIPR, EC10-EC20 glutamate challenge. It counts as cell-based. Here is the method: Procedure for mGluR2 Potentiator Screen NLB methods EC10-EC20 Challenge Cell Culture and Plating:
Cells used for this screen are HEK cells stably transfected with the mGluR2 receptor (metabotropic glutamate receptor 2) and the Gα15 G protein. Clones were identified by functional activity (FLIPR). Cells are grown in growth media containing: DMEM High Glucose with Glutamine and Na Pyruvate (GIBCO), 10% (v/v) Heat inactivate FBS (GIBCO), G418 500 ug/ml (from 50 mg/ml stock) (GIBCO) and Blasticidin 3 ug/ml (from 5 mg/ml stock made in H2O) (Invitrogen).
2 days before the assay cell are trypsinized with 0.25% trysin/EDTA (GIBCO), spun down at 1000 rpm for 5 minutes, resuspended in growth media and plated on polystyrene 384 well black wall 1 clear bottom poly-D-lysine coated plates at a density of approximately 18,000 cells/well in a volume of 50 μL per well. One day before the assay the growth media is removed from the plates by flicking, and replaced with media containing DMEM High Glucose without Glutamine and Na Pyruvate (GIBCO) and 10% (v/v) dialyzed FBS (GIBCO). The reason for the removal of glutamine the day before the assay is to minimize the amount of glutamate that will be present during the assay, as endogenous glutarnate released from the cells can reduce the fluorescent response and interfere with the FLIPR screen.
FLIPR Methods and Data Analysis:
On the day of the assay, the FLIPR assay is performed using the following methods.
The pH is adjusted to 7.4 with 1 M NaOH. Prepare a 2 mM (approx.) stock solution of Fluo-4,am (Molecular Probes) dye in DMSO-22 μl DMSO per 50 ug vial (440 μL per 1 mg vial). Make a 1 mM (approx.) flou-4, PA working solution per vial by adding 22 μl of 20% pluronic acid (PA), (Molecular Probes) in DMSO to each 50 ug vial (440 μL per 1 mg vial). Prepare a 250 mM Probenecid (Sigma) stock solution by dissolving 0.71 g into 5 ml 1N NaOH and 5 ml assay buffer (for each liter of assay wash buffer)L Make 4 uM (approx.) dye incubation media by adding […] per 11 ml DMEM high glucose without glutamine (220 ml per 1 mg vial). Add 110 μL probenecid stock per 11 ml (2.5 mM final [concentration]). To the dye media add 3 units/ml of glutamic-pyruvic transaminase (GPT, Sigma) and 3 mM Na Pyruvate. The assay has worked with dye concentrations from 2 uM to 8 uM dye as well. To the assay buffer from drug preparation, add 1.83 mls DMSO and 400 μL 15.8% P104 (from New Leads biology) per liter for final concentrations of 0.18% DMSO and 0.006% P104. To the assay buffer for cell washing, add probenecid in the same manner and concentration that was used for the dye media.
Remove growth media from cell plates by flicking. Add 50 μl/well dye solution. Incubate 1 hour at 37° C. and 5% CO2. Remove dye solution and wash 3 times with assay buffer+probenecid (100 μl probenecid stock per 10 ml buffer), leaving 30 μL/well assay buffer. Wait at least 10-15 minutes. Compounds and agonist challenge additions are performed with the FLIPR. The 1st addition is for test compounds, which are added as 15 μL of 4×[concentration] of potentiator. The second 2nd addition is 15 μL of 4×[concentration] of agonist or challenge. This achieves 1× concentration of all compounds only after 2nd addition. The 1st and 2nd additions are performed separately using the FLIPR, which give 2 different data files. Compounds are pretreated at least 30 minutes before agonist addition,
Results are analyzed by dividing the peak fluorescent value of the FLIPR response by the […] to achieve a ratio response. The ratios are then analyzed by curve fitting programs. […] Maximum values for dose response curves (forced fitting) are derived from standards on the plate.
Compound Preparation and Glutamate Challenge:
Compounds are delivered as 10 mM DMSO stocks or as powders, Powders are solubilized in DMSO at 10 mM (as solubility allows). Compounds are sonicated in a heated water bath (35-40° C.) for at least 20 minutes.

Where [1] appears, read: mGluR2 potentiator screen, FLIPR, EC10-EC20 glutamate challenge.

Where two headings read alike, the source gives them in different places. Where only a bound is given, the exact number is not on record here.

T1 sequence (Q14416 19-872, species assumed): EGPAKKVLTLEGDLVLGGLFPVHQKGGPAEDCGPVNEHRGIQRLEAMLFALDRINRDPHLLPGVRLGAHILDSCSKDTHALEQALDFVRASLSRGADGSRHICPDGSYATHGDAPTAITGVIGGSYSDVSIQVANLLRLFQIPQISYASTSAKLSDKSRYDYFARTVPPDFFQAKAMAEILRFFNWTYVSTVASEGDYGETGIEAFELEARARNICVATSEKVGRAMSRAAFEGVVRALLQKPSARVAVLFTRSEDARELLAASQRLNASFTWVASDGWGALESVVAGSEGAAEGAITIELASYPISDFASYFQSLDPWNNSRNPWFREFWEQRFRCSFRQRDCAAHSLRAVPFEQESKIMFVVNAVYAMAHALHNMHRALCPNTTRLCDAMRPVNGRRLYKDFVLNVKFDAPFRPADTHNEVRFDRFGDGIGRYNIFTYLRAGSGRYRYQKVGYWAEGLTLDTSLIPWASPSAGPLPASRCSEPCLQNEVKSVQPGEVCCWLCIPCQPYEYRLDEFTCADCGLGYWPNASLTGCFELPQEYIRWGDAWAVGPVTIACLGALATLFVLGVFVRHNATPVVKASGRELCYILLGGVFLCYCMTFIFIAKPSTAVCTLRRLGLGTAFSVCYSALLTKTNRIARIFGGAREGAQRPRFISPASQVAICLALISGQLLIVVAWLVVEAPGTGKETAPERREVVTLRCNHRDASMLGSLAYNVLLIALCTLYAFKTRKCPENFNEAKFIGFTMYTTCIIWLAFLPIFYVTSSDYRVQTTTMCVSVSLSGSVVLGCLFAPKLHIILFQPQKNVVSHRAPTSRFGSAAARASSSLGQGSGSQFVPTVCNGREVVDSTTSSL

The EC50 is the concentration giving half of the maximal effect. As to `CC(C)Oc1ccc(C2CCN(Cc3nc4cnccc4n3C)CC2)c(Cl)c1` [compound 267], the EC50 under setting [1] came to 85.5 nM.

For `Cn1c(CN2CCC(c3ccc(OC(F)F)cc3Cl)CC2)nc2ncccc21` [compound 266], the EC50 under setting [1] was 54.9 nM.

As to `C[C@@H]1CN(Cc2nc3cnccc3n2C)CC[C@@H]1c1ccc(Cl)cc1F` (single isomer, unassigned) [compound 140], the EC50 was found to be 2050 nM.

As for `C[C@@H]1CN(Cc2nc3cnccc3n2C)CC[C@@H]1c1ccc(F)cc1C(F)(F)F` (relative stereo) [compound 258], the EC50 under setting [1] is 125 nM. Consider `C[C@@H]1CN(Cc2nc3ncccc3n2C)CC[C@@H]1c1ccc(F)c(Cl)c1` (relative stereo) [compound 111], for which the EC50 turned out to be 203 nM.

For `Cn1c(CN2CCC(c3cccc(Cl)c3)CC2)nc2ncccc21` [compound 78], the EC50 turned out to be 880 nM. Same read-out and setting: in the case of `C[C@@H]1CN(Cc2nc3cnccc3n2C)CC[C@@H]1c1ccc(C(F)(F)F)cc1` (relative stereo) [compound 71] it was 75 nM.

Take `Cn1c(CN2CCC(c3ccc(OC(F)F)cc3Cl)CC2)nc2cnccc21` [compound 265]: the EC50 under setting [1] amounted to 164 nM. `COc1ccccc1C1CCN(Cc2nc3cnccc3n2C)CC1` [compound 46]: the EC50 came out at 1450 nM. Same read-out and setting: in the case of `CCOc1ccc(C2CCN(Cc3nc4ncccc4n3C)CC2)cc1` [compound 98] it was 2270 nM; in that of `CC(C)Oc1ccc([C@H]2CCN(Cc3nc4cnccc4n3C)C[C@H]2C)cc1Cl` (relative stereo) [compound 193], 590 nM; in that of `Cc1cccc(C2CCN(Cc3nc4ncccc4n3C)CC2)c1` [compound 62], 617 nM.

On to `C[C@@H]1CN(Cc2nc3ncccc3n2C)CC[C@@H]1c1ccc(OC(F)F)cc1` (single isomer, unassigned) [compound 224], for which the EC50 is greater than 1920 nM.

As to `C[C@@H]1CN(Cc2nc3ncccc3n2C)CC[C@@H]1c1ccc(F)c(F)c1` (relative stereo) [compound 121], the EC50 stood at 753 nM.

Consider `COc1cc(F)ccc1C1CCN(Cc2nc3ncccc3n2C)CC1` [compound 87], for which the concentration giving a half-maximal response (EC50) came to 212 nM. Still for that read-out and setting: the same measure for `C[C@@H]1CN(Cc2nc3cnccc3n2C)CC[C@@H]1c1ccc(Cl)cc1C(F)(F)F` (relative stereo) [compound 208]: 110 nM. Take `Cn1c(CN2CCC(c3ccc(Cl)cc3F)CC2)nc2cnccc21` [compound 113]: the EC50 came out at 81 nM.

Turning to `C[C@@H]1CN(Cc2nc3cnccc3n2C)CC[C@@H]1c1ccc(C(F)(F)F)cc1Cl` (single isomer, unassigned) [compound 171], the EC50 is 1520 nM.

Regarding `Cn1c(CN2CCC(c3ccc(F)cc3F)CC2)nc2cnccc21` [compound 84], the concentration for a half-maximal effect (EC50) worked out at 218 nM.

`COc1cc(OC(F)(F)F)ccc1C1CCN(Cc2nc3cnccc3n2C)CC1` [compound 280]: the EC50 under setting [1] is 33.9 nM. For the molecule `Cn1c(CN2CCC(c3ccccc3C(F)(F)F)CC2)nc2ncccc21` [compound 53], the EC50 worked out at 105 nM. On the same count and under the same terms, the same measure for `C[C@@H]1CN(Cc2nc3cnccc3n2C)CC[C@@H]1c1ccc(OC(F)F)cc1Cl` (relative stereo) [compound 202]: 125 nM; for `CC1CN(Cc2nc3ncccc3n2C)CCC1c1ccc(C(F)(F)F)cc1` (centres unmarked) [compound 70]: 111 nM. The same measure, in the same setting: the same measure for `Cc1ccc([C@H]2CCN(Cc3nc4ncccc4n3C)C[C@H]2C)c(Cl)c1` (relative stereo) [compound 210]: 62.6 nM. On to `C[C@@H]1CN(Cc2nc3cnccc3n2C)CC[C@@H]1c1ccc(OC(F)(F)F)cc1F` (single isomer, unassigned) [compound 159], for which the half-maximal effective concentration (EC50) was less than 31.3 nM.

With `C[C@@H]1CN(Cc2nc3cnccc3n2C)CC[C@@H]1c1ccccc1F` (single isomer, unassigned) [compound 117], the EC50 was greater than 359 nM. For `C[C@@H]1CN(Cc2nc3cnccc3n2C)CC[C@@H]1c1ccc(OC(F)(F)F)c(Cl)c1` (relative stereo) [compound 212], the EC50 worked out at 209 nM. The same measure, in the same setting: in the case of `Cn1c(CN2CCC(c3ccc(C(F)(F)F)cc3)C(F)C2)nc2ncccc21` (centres unmarked) [compound 100] it was 315 nM. The same measure, in the same setting: the same measure for `CC(C)Oc1ccc([C@H]2CCN(Cc3nc4ncccc4n3C)C[C@H]2C)c(F)c1` (single isomer, unassigned) [compound 217]: 29.8 nM; for `Cc1cc(F)ccc1C1CCN(Cc2nc3ncccc3n2C)CC1` [compound 69]: 353 nM.

For the molecule `C[C@@H]1CN(Cc2nc3cnccc3n2C)CC[C@@H]1c1ccc(F)cc1F` (relative stereo) [compound 125], the concentration giving a half-maximal response (EC50) worked out at 10300 nM. On the same count and under the same terms, the same measure for `C[C@@H]1CN(Cc2nc3ncccc3n2C)CC[C@@H]1c1ccc(C(F)(F)F)cc1Cl` (single isomer, unassigned) [compound 163]: 396 nM. Take `CC(C)Oc1ccc(C2CCN(Cc3nc4ncccc4n3C)CC2)c(Cl)c1` [compound 269]: the EC50 under setting [1] is 65.7 nM. As to `Cn1c(CN2CCC(c3cc(F)cc(F)c3)CC2)nc2ncccc21` [compound 91], the half-maximal effective concentration (EC50) was 985 nM.

With `C[C@@H]1CN(Cc2nc3cnccc3n2C)CC[C@@H]1c1ccc(OC(F)(F)F)cc1Cl` (single isomer, unassigned) [compound 253], the EC50 under setting [1] was determined as 1820 nM. For `COc1ccccc1C1CCN(Cc2nc3cccnc3n2C)CC1C` (centres unmarked) [compound 59], the 50% effective concentration (EC50) is 349 nM. Consider `C[C@@H]1CN(Cc2nc3ncccc3n2C)CC[C@@H]1c1ccc(F)cc1F` (relative stereo) [compound 124], for which the EC50 was 118 nM. Same read-out and setting: in the case of `C[C@@H]1CN(Cc2nc3cnccc3n2C)CC[C@@H]1c1cc(F)c(F)cc1F` (single isomer, unassigned) [compound 226] it was greater than 1260 nM.

In the case of `C[C@@H]1CN(Cc2nc3ncccc3n2C)CC[C@@H]1c1ccc(F)cc1C(F)(F)F` (single isomer, unassigned) [compound 251], the EC50 under setting [1] was found to be 21 nM. Regarding `C[C@@H]1CN(Cc2nc3cnccc3n2C)CC[C@@H]1c1ccc(F)c(F)c1F` (relative stereo) [compound 250], the EC50 under setting [1] is greater than 221 nM. Still for that read-out and setting: in the case of `Cc1cc(OC(F)(F)F)ccc1C1CCN(Cc2nc3cnccc3n2C)CC1` [compound 240] it was 96.8 nM; in that of `CC(C)Oc1ccc(C2CCN(Cc3nc4cnccc4n3C)CC2)c(F)c1` [compound 261], 125 nM. Consider `COc1cc(C(F)(F)F)ccc1[C@H]1CCN(Cc2nc3ncccc3n2C)C[C@H]1C` (single isomer, unassigned) [compound 131], for which the half-maximal effective concentration (EC50) came out at 21.9 nM. Same read-out and setting: in the case of `C[C@@H]1CN(Cc2nc3cnccc3n2C)CC[C@@H]1c1ccc(C(F)(F)F)cc1Cl` (relative stereo) [compound 152] it was 66.3 nM; in that of `Cc1cc(Cl)ccc1[C@H]1CCN(Cc2nc3ncccc3n2C)C[C@H]1C` (relative stereo) [compound 160], 102 nM. As to `Cn1c(CN2CCC(c3ccc(OC(F)F)cc3)CC2)nc2ncccc21` [compound 264], the EC50 under setting [1] worked out at 554 nM. In the case of `CC(C)Oc1ccc([C@H]2CCN(Cc3nc4ncccc4n3C)C[C@H]2C)cc1F` (relative stereo) [compound 182], the EC50 worked out at 577 nM. On the same count and under the same terms, in the case of `COc1ccccc1C1CCN(Cc2nc3ncccc3n2C)CC1C` (centres unmarked) [compound 60] it was 302 nM; in that of `Cn1c(CN2CCC(c3ccc(F)c(Cl)c3)CC2)nc2cccnc21` [compound 103], 367 nM. Still for that read-out and setting: in the case of `COc1ccccc1[C@]1(C)CCN(Cc2nc3ncccc3n2C)C[C@@H]1C` [compound 56] it was 3820 nM.
